Measured values: US20240368181A1, “QUINOXALINE DERIVATIVES AND USES THEREOF” (Black Diamond Therapeutics, Inc., priority 2021, published 2024)
Each block holds one compound with its values, some of them ahead of it.

Tests used:
Type in all cases: cell-based
[1] = test system: RT-112 (FGFR3-Tacc3 fusion) cells; assay: cell proliferation assay (CellTiterGlo), RT-112 cells; details: Homo sapiens, RT-112, RT112 cells, 72 hours
Procedure, shortened: (§1)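 Suspended cells plated; DMSO or compound dose range added; intracellular ATP read by CellTiterGlo luminescence; IC50 vs vehicle-normalized viability.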

[2] = test system: UM-UC-14 (FGFR3-S249C) cells; assay: cell proliferation assay (CellTiterGlo), UM-UC-14 cells; details: UMUC14, 72 h
Procedure, shortened: as §1

[3] = test system: DMS-114 (FGFR1 overexpression) cells; assay: cell proliferation assay (CellTiterGlo), DMS-114 cells; details: Homo sapiens, DMS-114, 72 h
Procedure, shortened: as §1

[4] = test system: SNU-16 (FGFR2-amplification) cells; assay: cell proliferation assay (CellTiterGlo), SNU-16 cells; details: Homo sapiens, 72 hours
Procedure, shortened: as §1

SMILES: Cc1nc2ccc(Oc3ccc4ncc(-c5cnn(C(OCc6ccccc6)C6CC6)c5)nc4c3Cl)cc2[nH]1 (stereo not shown) [Compound 222]
IC50 [1]: ≥ 400 nM
IC50 [2]: ≥ 400 nM
IC50 [3]: ≥ 400 nM
IC50 [4]: ≥ 400 nM

SMILES: FC1(F)CC(Cn2cc(-c3cnc4ccc(Oc5ccc6[nH]c(C(F)(F)F)nc6c5)c(Cl)c4n3)cn2)C1 [Compound 224]
IC50 [1]: ≥ 400 nM
IC50 [2]: ≥ 400 nM
IC50 [3]: ≥ 400 nM
IC50 [4]: ≥ 400 nM

SMILES: Cc1nc2ccc(Oc3ccc4ncc(-c5cnn(CCN6C[C@@H]7C[C@H]6CO7)c5)nc4c3Cl)cc2[nH]1 [Compound 225]
IC50 [1]: 20 to 100 nM
IC50 [2]: 20 to 100 nM
IC50 [3]: ≥ 400 nM
IC50 [4]: 20 to 100 nM

SMILES: Cc1nc2ccc(Oc3ccc4ncc(-c5cnn(C6CN(CC(=O)N7CC(F)(F)C7)C6)c5)nc4c3Cl)cc2[nH]1 [Compound 226]
IC50 [1]: 20 to 100 nM
IC50 [2]: 20 to 100 nM
IC50 [3]: ≥ 400 nM
IC50 [4]: 100 to 400 nM

SMILES: Cc1nc2ccc(Oc3ccc4ncc(-c5cnn(C6CN(C)C6)c5)nc4c3Cl)cc2[nH]1 [Compound 227]
IC50 [1]: 20 to 100 nM
IC50 [2]: 20 to 100 nM
IC50 [3]: ≥ 400 nM
IC50 [4]: 20 to 100 nM

SMILES: Cc1nc2ccc(Oc3ccc4ncc(-c5cnn(CC6CS(=O)(=O)C6)c5)nc4c3Cl)cc2[nH]1 [Compound 228]
IC50 [1]: 20 to 100 nM
IC50 [2]: 20 to 100 nM
IC50 [3]: ≥ 400 nM
IC50 [4]: 20 to 100 nM

SMILES: Cc1nc2c(F)c(Oc3ccc4ncc(-c5cnn(CC6CC(F)(F)C6)c5)nc4c3Cl)ccc2[nH]1 [Compound 229]
IC50 [1]: 20 to 100 nM
IC50 [2]: 20 to 100 nM
IC50 [3]: ≥ 400 nM
IC50 [4]: 20 to 100 nM

SMILES: Cc1nc2ccc(Oc3ccc4ncc(-c5cnn(C6CCN(C(=O)N7CCC7)CC6)c5)nc4c3Cl)cc2[nH]1 [Compound 232]
IC50 [1]: 20 to 100 nM
IC50 [2]: 20 to 100 nM
IC50 [3]: ≥ 400 nM
IC50 [4]: 20 to 100 nM

SMILES: CC(=O)/C=C/N1CC[C@H](n2cc(-c3cnc4ccc(Oc5ccc6nc(C)[nH]c6c5)c(Cl)c4n3)cn2)[C@@H](F)C1 [Compound 233]
IC50 [1]: 20 to 100 nM
IC50 [2]: 20 to 100 nM
IC50 [3]: ≥ 400 nM
IC50 [4]: 20 to 100 nM

SMILES: Cc1nc2ccc(Oc3ccc4ncc(-c5cnn(C6CN(CC(=O)N7CCC7)C6)c5)nc4c3Cl)cc2[nH]1 [Compound 236]
IC50 [1]: 20 to 100 nM
IC50 [2]: 20 to 100 nM
IC50 [3]: ≥ 400 nM
IC50 [4]: 20 to 100 nM

SMILES: Cc1nc2ccc(Oc3ccc4ncc(-c5cnn(C6CN(C7CCOCC7)C6)c5)nc4c3Cl)cc2[nH]1 [Compound 238]
IC50 [1]: 20 to 100 nM
IC50 [2]: 20 to 100 nM
IC50 [3]: 100 to 400 nM
IC50 [4]: 20 to 100 nM

SMILES: Cc1nc2ccc(Oc3ccc4ncc(-c5cnn(CCN6CCC6)c5)nc4c3Cl)cc2[nH]1 [Compound 239]
IC50 [1]: ≥ 400 nM
IC50 [2]: ≥ 400 nM
IC50 [3]: ≥ 400 nM
IC50 [4]: ≥ 400 nM

SMILES: Cc1nc2ccc(Oc3ccc4ncc(-c5cnn(C6CC(=O)C6)c5)nc4c3Cl)cc2[nH]1 [Compound 242]
IC50 [1]: 20 to 100 nM
IC50 [2]: 20 to 100 nM
IC50 [3]: ≥ 400 nM
IC50 [4]: 20 to 100 nM

The next lines start with results.

IC50 [4]: 20 to 100 nM
SMILES: Cc1nc2ccc(Oc3ccc4ncc(-c5cnn(C6CN(CC(F)F)C6)c5)nc4c3Cl)cc2[nH]1 [Compound 221]
IC50 [1]: 20 to 100 nM
IC50 [2]: 20 to 100 nM
IC50 [3]: ≥ 400 nM

IC50 [4]: 20 to 100 nM
SMILES: Cc1nc2ccc(Oc3ccc4ncc(-c5cnn(C6C7CCC6CNC7)c5)nc4c3Cl)cc2[nH]1 (stereo not shown) [Compound 223]
IC50 [1]: 20 to 100 nM
IC50 [2]: 20 to 100 nM
IC50 [3]: 100 to 400 nM

IC50 [4]: 20 to 100 nM
SMILES: Cc1nc2ccc(Oc3ccc4ncc(-c5cnn(C6CN(C7CN(C)C7)C6)c5)nc4c3Cl)cc2[nH]1 [Compound 230]
IC50 [1]: 20 to 100 nM
IC50 [2]: 20 to 100 nM
IC50 [3]: ≥ 400 nM

IC50 [4]: 20 to 100 nM
SMILES: C=C(C)c1c(Oc2ccc3nc(C)[nH]c3c2)ccc2ncc(-c3cnn(CC4CC(F)(F)C4)c3)nc12 [Compound 231]
IC50 [1]: 20 to 100 nM
IC50 [2]: 20 to 100 nM
IC50 [3]: ≥ 400 nM

IC50 [4]: 20 to 100 nM
SMILES: Cc1nc2ccc(Oc3ccc4ncc(-c5cnn(CCN6C[C@H]7C[C@@H]6CO7)c5)nc4c3Cl)cc2[nH]1 [Compound 234]
IC50 [1]: 20 to 100 nM
IC50 [2]: 20 to 100 nM
IC50 [3]: ≥ 400 nM

IC50 [4]: 20 to 100 nM
SMILES: Cc1nc2ccc(Oc3ccc4ncc(-c5cnn(C6CN(CC(=O)N7CC(O)C7)C6)c5)nc4c3Cl)cc2[nH]1 [Compound 235]
IC50 [1]: 20 to 100 nM
IC50 [2]: 20 to 100 nM
IC50 [3]: ≥ 400 nM

IC50 [4]: 20 to 100 nM
SMILES: Cc1nc2ccc(Oc3ccc4ncc(-c5cnn(C6CN(C7COC7)C6)c5)nc4c3Cl)cc2[nH]1 [Compound 237]
IC50 [1]: < 20 nM
IC50 [2]: 20 to 100 nM
IC50 [3]: 100 to 400 nM

IC50 [4]: 20 to 100 nM
SMILES: Cc1nc2ccc(Oc3ccc4ncc(-c5cnn(CC6CCN(C)S(=O)(=O)C6)c5)nc4c3Cl)cc2[nH]1 (stereo not shown) [Compound 240]
IC50 [1]: 20 to 100 nM
IC50 [2]: 20 to 100 nM
IC50 [3]: 100 to 400 nM

IC50 [4]: 20 to 100 nM
SMILES: Cc1nc2ccc(Oc3ccc4ncc(-c5cnn(CC6CC7CC6CO7)c5)nc4c3Cl)cc2[nH]1 (stereo not shown) [Compound 241]
IC50 [1]: < 20 nM
IC50 [2]: 20 to 100 nM
IC50 [3]: 100 to 400 nM
